Read-outs that look alike come from different tables or passages of the source.
Assays:
human CD40/CD154 = biological target: T1, human CD40/CD154 (Homo sapiens, UniProt P29965); assay: Human CD40/CD154 binding inhibition assay (cell-free, plate-based)
T1 construct: CD154 (soluble human, FLAG-tagged, recombinant from Alexis Biochemicals; MW=18 kDa); purchased Alexis Biochemicals
T1 sequence (P29965 113-261 limits assumed): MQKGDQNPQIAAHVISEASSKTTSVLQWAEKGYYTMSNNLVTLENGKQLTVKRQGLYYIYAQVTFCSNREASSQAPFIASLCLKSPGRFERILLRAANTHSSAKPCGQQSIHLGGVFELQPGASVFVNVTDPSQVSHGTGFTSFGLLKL
Protocol: A 96-well plate-based cell-free in vitro binding inhibition assay, which is a modification of an assay described in U.S. Pat. No. 7,173,046, incorporated by reference in its entirety, has been developed and used for activity screening. Briefly, CD40 is coated at a preselected concentration, and binding of (FLAG-tagged) CD154 is measured by reacting with secondary antibody and using TMB liquid substrate system as a substrate for horseradish peroxidase for reading at 450 nm. The detailed procedure is as follows: Microtiter plates (Nunc F MaxiSorp) were coated with […] of CD40: Fc (human:Fc human, recombinant from Alexis Biochemicals; MW=54 kDa) diluted in PBS pH 7.2 at a preselected concentration of 0.3125 μg/mL. Plates were covered with plate sealer and stored overnight at 4° C. The liquid was removed from the plates and blotted dry. Plates were blocked by washing once with approx. 300 μL/well of Blocking Solution (PBS pH 7.2, 0.05% Tween-20, 1% BSA) and incubated with the same solution for 1 hour at room temperature (RT) or at 4° C. overnight. Coated plates were washed three times with Washing Solution (PBS pH 7.4, 0.05% Tween-20) and blotted dry. A preselected dilution of CD154 (soluble human, FLAG-tagged, recombinant from Alexis Biochemicals; MW=18 kDa) of 0.0087500875 μg/mL range was prepared in 100 mM HEPES, 0.005% BSA pH 7.2. Binding was carried out by adding 100 μL of this CD154 dilution/well and incubating at RT in the presence of test compounds (or blank as negative control). After incubation, the plates were washed with Washing Solution and blotted dry. Bound CD154 was detected with 200 μL/well of secondary antibody mAb ANTI-FLAG M2—Peroxidase Conjugate (anti-FLAG M2-peroxidase HRP conjugate; Sigma-Aldrich) diluted 1:40,000 in Washing Solution. After incubation, the plates were washed and blotted dry. 200 μL/well of the HR-Peroxidase substrate TMB (3,3′,5,5′-tetramethylbenzidine; Sigma-Aldrich) were added, and the plates were incubated for approximately 30 minutes in the dark. The reaction was stopped with 0.5 M H2SO4 and read at 450 nm. All conditions were tested in at least three independent experiments in duplicate or triplicate per plates. Data were normalized and fitted with standard log inhibitor vs. response models using GraphPad Prism 5 to establish median inhibitory ICso values.
A representative result using the monoclonal anti-human CD154 antibody (R&D Systems, monoclonal anti-human CD40 ligand/TNFSF5 antibody, MAB617; MW≈150 kDa used) as positive control is shown in FIG. 1.
Binding inhibition assays with this system provided consistent and well-reproducible results, as FIG. 1 (bottom), focusing on the concentration range of their activities, illustrates. […] The effect of DMSO, which was used as the diluting solvent for the non-water-soluble compounds and is a standard solvent in HTS assays, on the integrity of the assay has been examined. DMSO concentrations above 10% interfere with the binding assay, but concentrations below 3% have no effect. […] Because 5 or 10 mM stock solutions were used, all IC50 values below 250 μM can be considered as unaffected by DMSO.

human TNF-R1/TNFα = human TNF-R1/TNFα (Homo sapiens, UniProt P01375+P19438); assay: Specificity test: human TNF-R1/TNFα binding inhibition assay; conditions: for IC50: cell-free binding, read-out: Human TNFR1/TNFα IC50; for Human TNFR1/TNFα log IC50: log of IC50, cell-free binding
Chain of human TNF-R1/TNFα (P01375 77-233 limits assumed): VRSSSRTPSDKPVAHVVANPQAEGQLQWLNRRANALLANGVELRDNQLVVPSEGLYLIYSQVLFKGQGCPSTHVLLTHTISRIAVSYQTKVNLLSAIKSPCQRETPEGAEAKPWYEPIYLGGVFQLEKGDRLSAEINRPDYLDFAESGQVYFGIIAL
Chain of human TNF-R1/TNFα (P19438 30-211 limits assumed): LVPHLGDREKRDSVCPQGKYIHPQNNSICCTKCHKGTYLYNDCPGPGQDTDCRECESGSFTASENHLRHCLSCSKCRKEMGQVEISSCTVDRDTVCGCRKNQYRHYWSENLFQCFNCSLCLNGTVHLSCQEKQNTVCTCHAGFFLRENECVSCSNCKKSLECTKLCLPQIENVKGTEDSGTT
Text: A main concern for the therapeutic applicability of these compounds and of small molecule PPI inhibitors in general is related to their ability to achieve some acceptable degree of selectivity/specificity for the PPI of interest. To identify compounds that show acceptable specificity for the CD40/CD154 system, their ability to inhibit the TNF-R1/TNF-α PPI was investigated since this is particularly relevant as CD154 is part of the TNF superfamily. The experimental setup used was very similar to the one described in Example 1, but using plate-coated TNF-R1 and TNF-α as ligand (with a corresponding anti-TNF-α mAb as positive control). The concentration of TNF-R1 and TNF-α used were 0.6 μg/mL and 0.02 μg/mL, respectively.

[1] = biological target: T2, mouse CD40/CD154 (mCD40:mCD154) (Mus musculus, UniProt P27548); assay: Murine CD40/CD154 binding inhibition assay
T2 construct: (FLAG-tagged) mCD154 (recombinant mouse CD40L, soluble, Alexis Biochemicals); purchased R&D Systems (mCD40/Fc); Alexis Biochemicals (mCD154)
T2 sequence (P27548 112-260 limits assumed): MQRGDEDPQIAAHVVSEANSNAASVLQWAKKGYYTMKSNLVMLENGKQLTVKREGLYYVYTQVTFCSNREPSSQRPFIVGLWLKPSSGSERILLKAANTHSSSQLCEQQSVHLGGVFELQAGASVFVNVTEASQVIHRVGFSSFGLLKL
Protocol: Compounds of interest were also tested in a murine (mouse) model similar to the human one with murine CD40 and CD154 replacing the corresponding human proteins. This serves as additional confirmation of the in vitro inhibitory potential of these compounds, and it was considered important because mouse models are likely to be used as the first in vivo tests. […] The experimental setup used was similar to the one described above, but using mCD40 (recombinant mouse CD40/TNFRSF5/Fc Chimera, soluble, R&D Systems) and (FLAG-tagged) mCD154 (recombinant mouse CD40L, soluble, Alexis Biochemicals). This time, however, a higher concentration of CD154 ligand had to be employed to obtain adequate signals, and after a number of calibration tests, mCD40 coating at 0.3125 μg/mL with mCD154 (mCD40L) at 1.1212 μg/mL range was selected to be used to screen the inhibiting activity of various compounds.
The experiments confirmed that the murine anti-CD154 monoclonal antibody (Taconic, MR1) was active in this system at the expected concentration (˜1 nM range), the human antibody was not, and vice versa, the human mAb was active in the human system, but not in the mouse system. The mouse system provided a similar range of activity with some (up to approximately five-fold) changes in activities compared to that seen in the human system (FIG. 2) (Table 1).

[2] = cell-free binding, read-out: Human CD40/CD154 IC50
[3] = cell-free binding, read-out: Human CD40/CD154 IC50 (ug/mL) (converted)
[4] = log of IC50, cell-free binding, read-out: Human CD40/CD154 log IC50 (converted)

Compound | Human CD40/CD154 IC50 (human CD40/CD154; cell-free binding) [µg/mL] | IC50 (human CD40/CD154; [2]) [µM] | Human CD40/CD154 log IC50 (human CD40/CD154; log of IC50, cell-free binding) | IC50 (human TNF-R1/TNFα) [µM] | Human TNFR1/TNFα log IC50 (human TNF-R1/TNFα) | IC50 (human CD40/CD154; [3]) [µM] | IC50 (human CD40/CD154; [4]) [µM] | IC50 ([1]; cell-free binding, read-out: Mouse CD40/CD154 IC50) [µM] | Mouse CD40/CD154 log IC50 ([1]; log of IC50, cell-free binding)
Nc1c(N=Nc2cccc([N+](=O)[O-])c2)c(S(=O)(=O)[O-])cc2cc(S(=O)(=O)[O-])c(N=Nc3ccccc3)c(O)c12.[Na+].[Na+] [Acid blue 29, acid blue 29] | 18.6 | 30.2 | −4.52 | 467 | −3.33 |  |  |  | 
direct red 53 | 16.2 | 24.4 | −4.61 |  |  |  |  |  | 
Nc1ccc(N=Nc2ccc(-c3ccc(N=Nc4c(S(=O)(=O)[O-])cc5cc(S(=O)(=O)[O-])c(N=Nc6ccccc6)c(O)c5c4N)cc3)cc2)c(N)c1.[Na+].[Na+] [Chlorazol black (direct black 38), direct black 38] | 0.9 | 1.1 | −5.95 |  |  |  |  |  | 
Cc1cc(-c2ccc(/N=N/c3ccc4c(S(=O)(=O)O)cc(S(=O)(=O)O)c(N)c4c3O)c(C)c2)ccc1/N=N/c1ccc2c(S(=O)(=O)O)cc(S(=O)(=O)O)c(N)c2c1O [Evans blue] |  |  |  |  |  | 1.6 | 1.45 |  | 
O=S(=O)([O-])c1cc(S(=O)(=O)[O-])c2c(N=Nc3ccc(N=Nc4ccccc4)cc3)c(O)ccc2c1.[Na+].[Na+] [Brilliant crocein (crocein scarlet MOO), Brilliant crocein, reference compound] | 92.8 | 141 | −3.85 |  |  |  |  | 282 | −3.55
acid red 188 | 7.0 | 12.8 | −4.89 |  |  |  |  |  | 
CCOc1ccc(N=Nc2ccc(-c3ccc(N=Nc4c(O)ccc5cc(S(=O)(=O)[O-])cc(S(=O)(=O)[O-])c45)cc3)cc2)cc1.[Na+].[Na+] [Direct red 37, direct red 37] | 8.8 | 13 | −4.88 |  |  |  |  |  | 
Cc1cc(-c2ccc(/N=N/c3c(S(=O)(=O)O)cc4cc(S(=O)(=O)O)cc(N)c4c3O)c(C)c2)ccc1/N=N/c1c(S(=O)(=O)O)cc2cc(S(=O)(=O)O)cc(N)c2c1O [Trypan blue, trypan blue] |  |  |  |  |  | 4.24 | 3.8 |  | 

Second part, the compound after the results:

Human CD40/CD154 IC50 (human CD40/CD154; cell-free binding) [µg/mL] | IC50 (human CD40/CD154; [2]) [µM] | Human CD40/CD154 log IC50 (human CD40/CD154; log of IC50, cell-free binding) | IC50 (human TNF-R1/TNFα) [µM] | Human TNFR1/TNFα log IC50 (human TNF-R1/TNFα) | IC50 (human CD40/CD154; [3]) [µM] | IC50 (human CD40/CD154; [4]) [µM] | IC50 ([1]; cell-free binding, read-out: Mouse CD40/CD154 IC50) [µM] | Mouse CD40/CD154 log IC50 ([1]; log of IC50, cell-free binding) | Compound
1.4 | 1.4 | −5.86 |  |  |  |  |  |  | COc1cc(-c2ccc(N=Nc3c(S(=O)(=O)[O-])cc4cc(S(=O)(=O)[O-])cc(N)c4c3O)c(OC)c2)ccc1N=Nc1c(S(=O)(=O)[O-])cc2cc(S(=O)(=O)[O-])cc(N)c2c1O.[Na+].[Na+].[Na+].[Na+] [Direct blue 15, direct blue 15]
1.4 | 1.6 | −5.80 |  |  |  |  |  |  | direct blue 120
1.3 | 1.9 | −5.72 | 42.4 | −4.37 |  |  |  |  | COc1ccccc1NC(=O)C(N=Nc1ccc(-c2nc3ccc(C)c(S(=O)(=O)[O-])c3s2)cc1S(=O)(=O)[O-])C(C)=O.[Na+].[Na+] (stereo not shown) [Direct yellow 27, direct yellow 27]
0.8 | 1.1 | −5.95 |  |  |  |  |  |  | O=S(=O)([O-])c1cccc(N=Nc2ccc(N=Nc3ccc(Nc4ccccc4)c4c(S(=O)(=O)[O-])cccc34)c3ccccc23)c1.[Na+].[Na+] [Acid blue 113, acid blue 113]
2.2 | 2.1 | −5.68 | 98.5 | −4.01 |  |  |  |  | Nc1ccc2c(O)c(N=Nc3ccc(N=Nc4ccc(N=Nc5cc(S(=O)(=O)[O-])c6cccc(S(=O)(=O)[O-])c6c5)c5ccccc45)c4ccc(S(=O)(=O)[O-])cc34)c(S(=O)(=O)[O-])cc2c1.[Na+].[Na+].[Na+].[Na+] [Direct blue 71, direct blue 71]
 | 5.7 |  | 34.9 |  | 6.13 |  |  |  | Nc1c(/N=N/c2ccc(-c3ccc(/N=N/c4cc(S(=O)(=O)O)c5ccccc5c4N)cc3)cc2)cc(S(=O)(=O)O)c2ccccc12 [Congo red]
0.3 | 0.7 | −6.18 | 86 | −4.07 |  |  |  |  | Nc1cc(N)c(N=Nc2cccc3c(S(=O)(=O)O)cccc23)cc1N=Nc1cc([N+](=O)[O-])ccc1O.[Na] [Mordant brown 1, mordant brown 1]
2.4 | 2.8 | −5.55 | 14.2 | −4.85 |  |  |  |  | Cc1ccc(S(=O)(=O)Oc2ccc(N=Nc3ccc(-c4ccc(N=Nc5c(O)ccc6cc(S(=O)(=O)[O-])cc(S(=O)(=O)[O-])c56)c(C)c4)cc3C)cc2)cc1.[Na+].[Na+] [Acid red 114, C.I. acid red 114]
